Source: US20260028384A1, “USE OF IL-2 VARIANT FOR TREATING KIDNEY TRANSPLANT REJECTION” (Visterra, Inc., priority 2024, published 2026)
Entries after “also recorded” stand apart in the source; their conditions may differ.

Assays:
[1] = system: regulatory T cells (Tregs); assay: Immunomodulatory effect (Treg expansion) in naïve Rhesus monkeys, flow cytometry; assay type: in vivo
Method: An exemplary alpha-biased IL-2 variant fused to an Fc domain of human IgG1 was prepared with a full length sequence according to SEQ ID NO: 27. The immunomodulatory effect of the exemplary alpha-biased IL-2-Fc fusion protein was assessed in naïve Rhesus monkeys by a study outlined in FIG. 1A. […] Rapamycin was also administered daily from Day 0 by intramuscular injections, targeting a trough level of approximately 8-12 ng/mL. Treg populations (CD4^+CD25^+FoxP3^+ and CD4^+CD25^+CD127^lo) and other immune cell populations including CD3^+/CD8^+ cytotoxic T cells (CTL) were analyzed using flow cytometry.

kidney allograft [2] = system: kidney allograft
Text: The effect of an exemplary alpha-biased IL-2-Fc fusion protein (SEQ ID NO: 27) on prolonged kidney allograft survival following transplant was studied in naïve Rhesus monkeys, as outlined in FIG. 1B. For the kidney transplant, animals were paired with ABO-compatible donors and mismatched for MHC haplotype of class I loci while allowing 1 or 2 MHC II haplotype matching. This degree of MHC mismatch is known to elicit a robust graft rejection and sensitization.
The alpha-biased IL-2-Fc fusion protein was administered subcutaneously at a dose of 50 μg/kg both pre- and post-transplant on Days −6, 1, 15, and 29. The kidney transplant was performed on Day 0, and rapamycin was administered daily by intramuscular injection, targeting a trough concentration of approximately 8-12 ng/mL. Rapamycin administration was discontinued on Day […] post-transplant. As a control, five monkeys were only administered the daily rapamycin. Kidney allograft biopsies were performed at 1-month and 3-months post-transplant. Blood samples were collected regularly, and samples were either analyzed at ambient temperature or frozen and stored.

kidney allograft [3] = assay: Kidney allograft survival after transplant and discontinuation of treatment, rapamycin discontinued on Day 30 (Example 3); assay type: in vivo, Rhesus monkeys
Text: However, rapamycin administration was discontinued on Day 30 post-transplant. A control group was only administered the daily rapamycin.

Row | Compound | percent of Tregs (CD4+CD25+FoxP3+) ([1]; 5-7 days after administration, increased from 6.21% pre-treatment, s.c. 50 or 100 μg/kg with daily rapamycin, FIG. 2A) [%] | tachyphylaxis of Treg number and percent on repeated dosing ([1]; FIGS. 3A and 3B, after each dose) | cytotoxic T cells (CTLs) during the increase in Tregs ([1]; over the course of treatment) | ratio of Tregs:CD8 cells ([1]; over the course of treatment, 50 or 100 μg/kg, FIG. 2B) | absolute number of Tregs ([1]; over the course of treatment, s.c. Days 0, 14, 28 at 50 or 100 μg/kg, daily rapamycin, FIG. 2B) | survival post-transplant, one Rhesus monkey (kidney allograft [2]; 50 μg/kg plus daily rapamycin until Day 180, longest surviving monkey) [days] | kidney graft survival, at least three of four Rhesus monkeys (kidney allograft [2]; 50 μg/kg plus daily rapamycin, at least three of four monkeys) | time creatinine and BUN / transplanted kidney stable post-transplant, some cases (kidney allograft [2]; 50 μg/kg s.c. Days −6, 1, 15, 29 plus daily rapamycin until Day 180, some cases) | time creatinine and blood urea nitrogen (BUN) stable post-transplant, most cases (kidney allograft [2]; 50 μg/kg s.c. Days −6, 1, 15, 29 plus daily rapamycin, most cases, FIGS. 4A, 4B) | Tregs (FoxP3+ CD4+ and CD127lo CD4+) in PBMCs (kidney allograft [2]; after administration, post-transplant, FIG. 8) | CD20+ B cells (kidney allograft [2]; after kidney transplant, FIG. 5) | histopathology of monkey terminated early for excessive body weight loss (kidney allograft [2]; one monkey of the fusion protein group) | blood chemistry parameters (ALT, ALP, GGT, bilirubin, protein, albumin, globulin, cholesterol, phosphate, calcium, glucose, sodium, potassium, chloride) (kidney allograft [2]; rhesus monkey, in vivo) | hematology parameters (hemoglobin, hematocrit, blood cell counts) (kidney allograft [2]; rhesus monkey, in vivo) | time sCR and BUN levels stable post-transplant, most cases (kidney allograft [3]; 50 μg/kg s.c. Days −6, 1, 15, 29 plus daily rapamycin until Day 30, most cases, FIG. 10A) | time sCR and BUN levels stable post-transplant, some cases (kidney allograft [3]; rapamycin discontinued Day 30, some cases) [days] | time sCR and BUN levels stable following complete withdrawal of immunosuppressive drugs (kidney allograft [3]; some cases) | time to termination post-transplant (increases in sCR and BUN or excessive weight loss) (kidney allograft [3]; control group, daily rapamycin only, FIG. 10B)
1 | alpha-biased IL-2-Fc fusion protein: IL2 Variant (H16L/V69A/Q74P/C125S) fused to IgG1 Fc (N297G) allotype m3; full length sequence SEQ ID NO: 27 | 38.5 | without signs of tachyphylaxis | did not coincide with an increase | significantly increased in a dose-dependent manner | significantly increased in a dose-dependent manner; also recorded: statistically significant and dose dependent | 235 | over 50 days | over 235 days | over 50 days | increase in both percent and number | decrease | did not indicate kidney rejection | fell within the expected range | normally fell within their expected ranges | at least 40 days | ≥ 110 | up to 82 days | 
2 | CO[C@H]1C[C@@H]2CC[C@@H](C)[C@@](O)(O2)C(=O)C(=O)N2CCCC[C@H]2C(=O)O[C@H]([C@H](C)C[C@@H]2CC[C@@H](O)[C@H](OC)C2)CC(=O)[C@H](C)/C=C(\C)[C@@H](O)[C@@H](OC)C(=O)[C@H](C)C[C@H](C)/C=C/C=C/C=C/1C [rapamycin, reference compound] |  |  |  |  |  |  |  |  |  |  |  |  |  |  |  |  |  | less than 30 days
